Read-outs that look alike come from different tables or passages of the source.
Key:
CDK4/Cyclin D1 = CDK4/Cyclin D1 (Homo sapiens (Human), UniProt P11802); assay: CDK4/CyclinD1 enzymatic activity assay (TR-FRET); assay type: biochemical; details: CDK4/CyclinD1 1 nM, ATP 2 mM, read-out: CDK4_D1 IC50
Method: CDK4/CyclinD1 Enzymatic Activity Assay
(§1) The inhibitory activity of compounds was evaluated in vitro using TR-FRET assay with white 384-well low volume microplate (Greiner Bio-One). CDK4/Cyclin D1 catalyzed phosphorylation of peptide in the presence and absence of compounds was measured. IC50 determination. Recombinant protein complex CDK4/Cyclin D1, expressed from insect cell, was purchased from ProQinase. Testing compounds were dissolved in DMSO at 0.1 mM and tested in 9-dose IC50 mode. The reaction mixture was prepared by mixing CDK4/CyclinD1 (1 nM final), ULight-4E-BP1 (100 nM final, Perkinelmer, TRF0128-D), and ATP (2 mM final) in assay buffer (20 mM of HEPES pH 7.4, 1 mM of EGTA, 0.05% BSA, 0.005% Tween 20, and 1 mM TCEP). The compound of interest in DMSO was added to each well in 3-fold serial dilution by dispenser (TECAN D300E). After 20 minutes preincubation at room temperature, MgCl2 (10 mM final) was added to initiate the reaction. Following a 60 minutes incubation at 37° C., the reaction was stopped by addition of 2 μL of quenching buffer consisting of Lance detection buffer (Perkinelmer CR97-100C), 2 nM LANCE Ultra Europium-anti-P-4E-BP1 (Perkinelmer, TRF0216-D), 10 mM EDTA, and incubate at room temperature for additional 60 minutes in dark. The reaction signal was measured by Envision multimode plate reader (PerkinElmer, 2102-0010). IC50 values were determined by fitting the data to the standard 4 parameters with Hill Slope using GraphPad Prism software.

CDK6/Cyclin D1 = CDK6/Cyclin D1 (Homo sapiens (Human), UniProt Q00534); assay: CDK6/CyclinD1 enzymatic activity assay (TR-FRET); assay type: biochemical; details: CDK6/Cyclin D1 1 nM, ATP 250 μM, read-out: CDK6_D1 IC50
Method: CDK6/CyclinD1 Enzymatic Activity Assay
as §1, with “CDK6/Cyclin” for “CDK4/Cyclin”, “measured and used in” for “measured.”, “CDK6/Cyclin D1” for “CDK4/CyclinD1”, “(250 μM” for “(2 mM”, “temperature, 0.1 μL” for “temperature,”

[1] = system: MCF7 adenocarcinoma cell line; assay: Cell proliferation studies in MCF7 cells (ATP-Lite); assay type: cell-based; details: 10 days incubation, cell viability by ATP-Lite luminescence, read-out: PROLIFERATION_CTG_MCF7 IC50
Method: Cell Proliferation Studies in MCF7 Cells
Cell proliferation studies were conducted in MCF7 adenocarcinoma cell line. Cells were maintained in DMEM (Corning, Catalog #: 10-013-CV) supplemented with 10% v/v FBS (Gibco, Catalog #: 26140-079), 1% v/v Penicillin Streptomycin (Gibco, Catalog #15140-122) Cells were seeded in 384-well plates at a density of 100 or 200 cells/well. Compounds dissolved in DMSO were plated in quadruplicate using a digital dispenser (D300E, Tecan) and tested on a 9-point 3-fold serial dilution. Cells were incubated for 10 days in a 37° C. active humidified incubator at 5% CO2. A media exchange and second compound addition were performed on day 5. Cell viability was measured using the ATP-Lite 1-Step Luminescence reagent (Perkin Elmer, Catalog #: 6016731) as per manufacturer's instructions. Luminescence signal was measured with a multimode plate reader (Envision 2105, Perkin Elmer). Raw data files were imported to Dotmatics Screening Ultra for IC50 analysis. Luminescence values were normalized to both background and DMSO controls to obtain a percentage of viable cells relative to DMSO vehicle control.

Chain of CDK6/Cyclin D1 (Q00534 whole entry): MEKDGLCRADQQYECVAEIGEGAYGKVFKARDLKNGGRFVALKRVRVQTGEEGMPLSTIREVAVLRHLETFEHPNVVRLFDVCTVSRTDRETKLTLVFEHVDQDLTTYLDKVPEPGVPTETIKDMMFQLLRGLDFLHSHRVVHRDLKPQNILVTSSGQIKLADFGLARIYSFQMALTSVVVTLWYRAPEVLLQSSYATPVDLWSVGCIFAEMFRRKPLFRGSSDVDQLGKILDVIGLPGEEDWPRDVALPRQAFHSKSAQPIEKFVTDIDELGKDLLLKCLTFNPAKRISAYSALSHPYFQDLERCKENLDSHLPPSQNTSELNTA
Chain of CDK6/Cyclin D1 (P24385 whole entry partner): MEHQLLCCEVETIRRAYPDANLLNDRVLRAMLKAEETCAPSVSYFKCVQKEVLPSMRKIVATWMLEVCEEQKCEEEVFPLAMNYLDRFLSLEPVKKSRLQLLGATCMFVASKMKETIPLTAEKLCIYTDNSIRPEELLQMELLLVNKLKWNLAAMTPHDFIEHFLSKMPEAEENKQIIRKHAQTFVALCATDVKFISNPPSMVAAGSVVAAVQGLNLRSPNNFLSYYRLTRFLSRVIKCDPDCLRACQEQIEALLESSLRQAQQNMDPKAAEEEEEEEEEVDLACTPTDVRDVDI
Chain of CDK4/Cyclin D1 (P11802 whole entry): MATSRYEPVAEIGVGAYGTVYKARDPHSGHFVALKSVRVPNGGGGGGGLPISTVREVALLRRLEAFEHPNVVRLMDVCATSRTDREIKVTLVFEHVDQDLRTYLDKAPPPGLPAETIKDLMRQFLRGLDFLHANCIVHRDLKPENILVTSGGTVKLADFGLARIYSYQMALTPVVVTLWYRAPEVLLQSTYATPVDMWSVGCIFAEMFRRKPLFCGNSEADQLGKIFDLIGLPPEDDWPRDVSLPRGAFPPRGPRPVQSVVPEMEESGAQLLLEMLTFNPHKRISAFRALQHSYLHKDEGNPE
Chain of CDK4/Cyclin D1 (P24385 whole entry partner): as the sequence (P24385 whole entry partner) above

SMILES	IC50 (CDK4/Cyclin D1)	IC50 (CDK6/Cyclin D1)	IC50 ([1]; Homo sapiens, 240 h)	IC50 [1]
CN1CCC(c2ccc(Nc3ncc(F)c(-c4cc5c(s4)C4(CCCCC4)CN(C)C5=O)n3)nc2)CC1 [Example 5, 2′-(5-Fluoro-2-((5-(1-methylpiperidin-4-yl)pyridin-2-yl)amino)pyrimidin-4-yl)-5′-methyl-5′,6′-dihydro-4′H-spiro[cyclohexane-1,7′-thieno[3,2-c]pyridin]-4′-one]	≤ 20 nM	20 to 200 nM	≤ 20 nM	
CN1CCC(c2ccc(Nc3ncc(F)c(-c4cc5c(s4)C4(CC4)N(C)C5=O)n3)nc2)CC1 [Example 8]	≤ 20 nM	≤ 20 nM		20 to 200 nM
CN1CCC(c2ccc(Nc3ncc(F)c(-c4sc5c(c4Cl)C(=O)N(C)C54CC4)n3)nc2)CC1 [Example 9, 3′-chloro-2′-(5-Fluoro-2-((5-(1-methylpiperidin-4-yl)pyridin-2-yl)amino)pyrimidin-4-yl)-5′-methylspiro[cyclopropane-1,6′-thieno[2,3-c]pyrrol]-4′(5′H)-one]	≤ 20 nM	≤ 20 nM	20 to 200 nM	
CN1CCC(c2ccc(Nc3ncc(F)c(-c4sc5c(c4C(F)(F)F)C(=O)N(C)C54CC4)n3)nc2)CC1 [Example 10, 2′-(5-Fluoro-2-((5-(1-methyl-piperidin-4-yl)pyridin-2-yl)amino)pyrimidin-4-yl)-5′-methyl-3′-(trifluoromethyl)spiro[cyclopropane-1,6′-thieno[2,3-c]pyrrol]-4′(5′H)-one]	≤ 20 nM	≤ 20 nM	20 to 200 nM	
CCN1CCN(Cc2ccc(Nc3ncc(F)c(-c4sc5c(c4C)C(=O)N(C)C54CC4)n3)nc2)CC1 [Example 13, 2′-(2-((5-((4-Ethylpiperazin-1-yl)methyl)pyridin-2-yl)amino)-5-fluoropyrimidin-4-yl)-3′,5′-dimethylspiro[cyclopropane-1,6′-thieno[2,3-c]pyrrol]-4′(5′H)-one]	≤ 20 nM	≤ 20 nM	20 to 200 nM	
CCN1CC2(C1)CN(c1ccc(Nc3ncc(F)c(-c4cc5c(s4)C4(CCCC4)N(CC)C5=O)n3)nc1)C2 [Example 21, 5′-Ethyl-2′-(2-((5-(6-ethyl-2,6-diazaspiro[3.3]heptan-2-yl)pyridin-2-yl)amino)-5-fluoropyrimidin-4-yl)spiro[cyclopentane-1,6′-thieno[2,3-c]pyrrol]-4′(5′H)-one]	≤ 20 nM	≤ 20 nM	20 to 200 nM	
CCN1C(=O)c2cc(-c3nc(Nc4ccc(C5CCN(C)CC5)cn4)ncc3F)sc2C12CCCC2 [Example 22, 5′-Ethyl-2′-(5-fluoro-2-((5-(1-methylpiperidin-4-yl)pyridin-2-yl)amino)pyrimidin-4-yl)spiro[cyclopentane-1,6′-thieno[2,3-c]pyrrol]-4′(5′H)-one]	≤ 20 nM	20 to 200 nM	20 to 200 nM	
CCN1CCC(c2ccc(Nc3ncc(F)c(-c4cc5c(s4)C4(CCCC4)N(C)C5=O)n3)nc2)CC1 [Example 23, 2′-(2-((5-(1-Ethylpiperidin-4-yl)pyridin-2-yl)amino)-5-fluoropyrimidin-4-yl)-5′-methylspiro[cyclopentane-1,6′-thieno[2,3-c]pyrrol]-4′(5′H)-one]	≤ 20 nM	≤ 20 nM	20 to 200 nM	
CN1CCC(c2ccc(Nc3ncc(F)c(-c4sc5c(c4C(F)(F)F)C(=O)N(C)C54CCCC4)n3)nc2)CC1 [Example 26, 2′-(5-Fluoro-2-((5-(1-methylpiperidin-4-yl)pyridin-2-yl)amino)pyrimidin-4-yl)-5′-methyl-3′-(trifluoromethyl)spiro[cyclopentane-1,6′-thieno[2,3-c]pyrrol]-4′(5′H)-one]	≤ 20 nM	≤ 20 nM	≤ 20 nM	
CN1CCC(c2ccc(Nc3ncc(F)c(-c4sc5c(c4Cl)C(=O)N(C)C54CCCC4)n3)nc2)CC1 [Example 27, 3′-Chloro-2′-(5-fluoro-2-((5-(1-methylpiperidin-4-yl)pyridin-2-yl)amino)pyrimidin-4-yl)-5′-methylspiro[cyclopentane-1,6′-thieno[2,3-c]pyrrol]-4′(5′H)-one]	≤ 20 nM	≤ 20 nM	≤ 20 nM	
Cc1c(-c2nc(Nc3ccc(C4CCCN(C)C4)cn3)ncc2F)sc2c1C(=O)N(C)CC21CC1 (stereo not shown) [Example 30, 2′-(5-Fluoro-2-((5-(1-methyl-piperidin-3-yl)pyridin-2-yl)amino)pyrimidin-4-yl)-3′,5′-dimethyl-5′,6′-dihydro-4′H-spiro[cyclopropane-1,7′-thieno[3,2-c]pyridin]-4′-one]	≤ 20 nM	≤ 20 nM	20 to 200 nM	
Cc1c(-c2nc(Nc3ccc(C4CCN(C5CCOC5)CC4)cn3)ncc2F)sc2c1C(=O)N(C)CC21CC1 (stereo not shown) [Example 32, 2′-(5-Fluoro-2-((5-(1-(tetrahydrofuran-3-yl)piperidin-4-yl)pyridin-2-yl)amino)pyrimidin-4-yl)-3′,5′-dimethyl-5′,6′-dihydro-4′H-spiro[cyclopropane-1,7′-thieno[3,2-c]pyridin]-4′-one]	≤ 20 nM	≤ 20 nM	20 to 200 nM	
Cc1c(-c2nc(Nc3ccc(N4CC5(C4)CN(C(C)C)C5)cn3)ncc2F)sc2c1C(=O)N(C)CC21CC1 [Example 34, 2′-(5-Fluoro-2-((5-(6-isopropyl-2,6-diazaspiro[3.3]heptan-2-yl)pyridin-2-yl)amino)pyrimidin-4-yl)-3′,5′-dimethyl-5′,6′-dihydro-4′H-spiro[cyclopropane-1,7′-thieno[3,2-c]pyridin]-4′-one]	≤ 20 nM	≤ 20 nM	≤ 20 nM	
Cc1c(-c2nc(Nc3ccc(N4CCC5(CC4)CN(C)C5)cn3)ncc2F)sc2c1C(=O)N(C)CC21CC1 [Example 36, 2′-(5-Fluoro-2-((5-(2-methyl-2,7-diazaspiro[3.5]nonan-7-yl)pyridin-2-yl)amino)pyrimidin-4-yl)-3′,5′-dimethyl-5′,6′-dihydro-4′H-spiro[cyclopropane-1,7′-thieno[3,2-c]pyridin]-4′-one]	≤ 20 nM	≤ 20 nM	20 to 200 nM	
CN1CC2(CCCC2)c2sc(-c3nc(Nc4ccc(N5CCN6CCC5CC6)cn4)ncc3F)cc2C1=O [Example 64, 2-[2-[[5-(1,4-Diazabicyclo[3.2.2]nonan-4-yl)pyridin-2-yl]amino]-5-fluoropyrimidin-4-yl]-5-methylspiro[6H-thieno[3,2-c]pyridine-7,1′-cyclopentane]-4-one]	≤ 20 nM		20 to 200 nM	
Cc1c(-c2nc(Nc3ccc(C4CCN(C(C)C)CC4)nn3)ncc2F)sc2c1C(=O)N(C)CC21CC1 [Example 83, 2′-(5-Fluoro-2-((6-(1-isopropylpiperidin-4-yl)pyridazin-3-yl)amino)pyrimidin-4-yl)-3′,5′-dimethyl-5′,6′-dihydro-4′H-spiro[cyclopropane-1,7′-thieno[3,2-c]pyridin]-4′-one]	≤ 20 nM		20 to 200 nM	

Reference: patent publication US20250163074A1, “CDK Inhibitors And Their Use As Pharmaceuticals” (Prelude Therapeutics Incorporated, priority 2020, published 2025)
